Data set [1] can be described thus: Self-assembly study: putting peptides in solution in water, macroscopic, ATR-FTIR, TEM and SAXS analysis. The format is physicochemical. To be noted: 3 to 15% by mass of peptide in water; form and diameter of the self-assembled structure, or soluble / insoluble. From the text:
The procedure used comprises three stages: putting the peptides in solution and macroscopic analysis; spectroscopic and microscopic analyses of the structures formed and by small-angle X-ray scattering (SAXS) analyses.
The first stage of the characterization of the derivatives is the production of a range of concentrations from 3 to 15% by mass of peptide in water. Gelling of the solution indicates the presence of self-assembled structures which can be nanotubes but can also be fibres or other self-organised structures.
The object of this stage is to verify the presence of self-assembled structures, to characterize their self-assembly and to visualize them by microscopy.
Infrared spectroscopy makes it possible to obtain information on the method of stacking the peptides in the self-assemblies. The amide band spectrum, reflecting the absorption spectra of the carbonyl functions of the peptide backbone, gives information on the type of hydrogen bond in which these groups are involved (H bonds leading to the formation of the […], a helix or also a loop or random conformation) and consequently on the secondary and tertiary structure of the peptides in solution and self-assembled. The attenuated total reflection technique (ATR-FTIR) uses a crystal on which the solid or liquid sample is deposited. The infrared light is guided through this crystal at an angle which allows it to be reflected several times inside the crystal, which increases the sensitivity of the technique. Due to the performance of this device, it is then possible perform measurements on relatively dilute solutions. The beam penetrates a few microns into the sample deposited on the crystal, which means that only the molecules/structures which are deposited on the surface of the crystal are analyzed. Moreover, this technique is non-destructive.
The assembled structures are then visualized by transmission electron microscopy (TEM). This very powerful technique, allowing magnifications greater than 500,000 times, is one of the few techniques capable of visualizing structures on the nanometric scale. The sample is subjected to an electron beam. The visualization of the transmitted beam is produced either by a photoluminescent screen, or by a CCD camera. The sample in the microscope being under vacuum, it is samples dried after staining with uranyl salts in order to increase contrast which are observed.
The peptide in solution is firstly deposited on a copper grid covered with a film of carbon. After deposition of the materiel, the excess liquid is eliminated. In the same way, the solution of colorant, in our case uranyl acetate, is deposited on the grid, the excess is eliminated and the grid is dried in the open air. It can then be introduced into the microscope.
The samples, liquids or gels, are introduced into a capillary column and subjected to a monochromatic flow of X-rays. The intensity diffused is measured as a function of the scattering angle with respect to the incident angle.
The diffusion patterns thus obtained must be the subject of a correlation with a close theoretical model of the structures present in the sample. In the case where the peptides have self-assembled in the form of hollow nanotubes, the modelling of the experimental data with the theoretical diffusion produced by infinitely long hollow columns makes it possible to determine with precision the diameter of the columns and to estimate their wall thickness (Valery et al. in Biophysical journal, 2004, 86(4), 2484-2501 and Proc. Natl. Acad. Sci., 2003, 100(18) 10258-10262). For polydisperse, nanotubular, fibrilar, micellar or lamellar self-assemblies, it is the correlation of the spectroscopic, microscopic and XR scattering data which makes it possible to estimate a size range for the objects observed.

For data set [2], the target named is T1, somatostatin receptors sub-type 5 (Homo sapiens, UniProt P35346).
T1 construct: expressed in transfected cells; membrane preparations
T1 sequence (P35346 whole entry): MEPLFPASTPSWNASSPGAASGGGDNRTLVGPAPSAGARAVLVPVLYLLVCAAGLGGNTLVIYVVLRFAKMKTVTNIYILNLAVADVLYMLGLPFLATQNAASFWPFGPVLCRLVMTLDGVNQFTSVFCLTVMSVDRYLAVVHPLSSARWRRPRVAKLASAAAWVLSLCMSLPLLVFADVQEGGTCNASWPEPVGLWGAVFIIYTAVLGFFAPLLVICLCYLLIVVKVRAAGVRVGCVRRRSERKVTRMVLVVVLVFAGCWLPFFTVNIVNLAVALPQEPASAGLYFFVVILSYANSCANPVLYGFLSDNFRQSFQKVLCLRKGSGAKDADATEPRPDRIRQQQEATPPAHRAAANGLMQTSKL
In words: Affinity for somatostatin receptors: inhibition of [125I-Tyr11]SRIF-14 binding to membranes of transfected CHO-K1 cells. To be noted: competitive inhibition of [125I-Tyr11]SRIF-14 binding, 37° C. As to the method:
(§1) The affinity of the compounds of the invention for the somatostatin receptors is determined by measurement of the inhibition of the bond of [125I-Tyr11]SRIF-14 to membrane preparations of transfected CHO-K1 cells.
(§2) The CHO-K1 cells expressing in a stable fashion each of the sub-types of somatostatin receptors are collected with 0.5 mM of EDTA and centrifuged at 500 g for 5 minutes at 4° C. The pellet is re-suspended in phosphate buffer (PBS) and centrifuged at 500 g for 5 minutes at 4° C. The pellet is re-suspended in Tris 50 mM buffer at pH 7.4 and centrifuged at 500 g for 5 minutes at 4° C. The cells are lyzed by sonication and centrifuged at 39,000 g for 10 minutes. The pellet is re-suspended in Tris 50 mM buffer at pH 7.4, an aliquot is removed for assaying the proteins and the remainder is centrifuged at 50,000 g for 10 minutes. The membranes obtained in this last pellet are stored at −80° C.
(§3) Measurement of the competitive inhibition of the bond of [125I-Tyr11]SRIF-14 (Perkin Elmer) on each of the sub-types of somatostatin receptors is carried out in duplicate in 96-well polypropylene plates. The cell membranes (5 to 20 µg of proteins/well) are incubated with [125I-Tyr11]SRIF-14 (0.05 to 0.1 nM) for 50 to 90 minutes at 37° C. (conditions dependent on the sub-type of receptor) in a HEPES buffer medium 50 mM pH 7.4, comprising 0.2% bovine serum albumin (BSA), MgCl2 5 mM, Trasylol 200 KIU/mL, Bacitracin 0.02 mg/mL, phenylmethylsulphonyl fluoride 0.02 mg/mL.
(§4) The bound [125I-Tyr11]SRIF-14 is separated from the free [125I-Tyr11]SRIF-14 by filtration through GF/C glass fibre plates (Unifilter, Perkin Elmer) pre-impregnated with 0.1% polyethylenimine (P.E.I.), using a Filtermate 96 (Perkin Elmer). The filters are washed with Tris-HCl buffer 50 mM, pH 7.4 at 4° C. and the radioactivity present is determined using a counter (TopCount, Perkin Elmer).
(§5) The data are analyzed by computer-assisted non-linear regression using XLfit 4.2 (IDBS) software.

The target of data set [3] is T2, somatostatin receptors sub-type 2 (Homo sapiens, UniProt P30874).
T2 construct: expressed in transfected cells; membrane preparations
T2 sequence (P30874 whole entry): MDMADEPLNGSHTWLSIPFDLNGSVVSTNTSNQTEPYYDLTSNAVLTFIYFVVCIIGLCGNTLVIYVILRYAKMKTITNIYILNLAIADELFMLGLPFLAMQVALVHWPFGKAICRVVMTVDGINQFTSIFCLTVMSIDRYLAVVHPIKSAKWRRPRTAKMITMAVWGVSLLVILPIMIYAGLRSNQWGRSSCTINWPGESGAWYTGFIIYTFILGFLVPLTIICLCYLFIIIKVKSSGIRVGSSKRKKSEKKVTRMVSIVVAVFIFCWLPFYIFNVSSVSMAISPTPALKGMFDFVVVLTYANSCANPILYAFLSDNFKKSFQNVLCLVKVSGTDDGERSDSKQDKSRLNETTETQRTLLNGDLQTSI
The data set is described as above. As to conditions: competitive inhibition of [125I-Tyr11]SRIF-14 binding, 37° C. On the procedure:
as §1, §2, §3, §4, §5

Data set [4] in a line: Solubility study before preparative HPLC. The format is physicochemical. As to conditions: water-acetonitrile mixture 58:42; water-acetonitrile solution 58:42. From the text:
The peptide must be dissolved in a water-acetonitrile mixture in order be injected into the preparative HPLC. A solubility study is first carried out on a small quantity. It allows the optimum percentage of acetonitrile and the maximum quantity of peptide to be established. The lowest possible percentage of acetonitrile with a very high concentration of peptide and a resultant clear solution constitute ideal conditions. By way of example, the solubility of the 4-para-fluorophenylalanine derivative (Example 13 hereafter) was established at 49 g l^−1 in a water-acetonitrile solution 58:42.

≈ marks a conversion by molar mass, not a printed value. Where “and” joins values, the source holds several entries; their conditions need not be identical. Equal values may be shown once. Bridge positions count the residues as written; N and C are the ends. Square brackets hold non-standard residues; d marks the D form. Peptide text beside a SMILES is read from it. ξ: configuration not given here. dPhe(4-Br) = N[C@H](Cc1ccc(Br)cc1)C(=O)O; dPhe(3-F) = N[C@H](Cc1cccc(F)c1)C(=O)O; dPhe(4-F) = N[C@H](Cc1ccc(F)cc1)C(=O)O; d2Nal = N[C@H](Cc1ccc2ccccc2c1)C(=O)O; d(hPhe) = N[C@H](CCc1ccccc1)C(=O)O; Thr(3ξ) = CC(O)[C@H](N)C(=O)O

As usually defined, the Ki is the equilibrium dissociation constant of an inhibitor or competing ligand from its target. Low readings indicate tighter binding, high ones weaker binding. The solubility is the dissolved amount per volume that the medium holds. In the case of `CC(C)[C@@H]1NC(=O)[C@H](CCCCN)NC(=O)[C@@H](Cc2ccc(F)cc2)NC(=O)[C@H](Cc2ccc(O)cc2)NC(=O)[C@@H](NC(=O)[C@H](N)Cc2ccc3ccccc3c2)CSSC[C@@H](C(=O)N[C@H](C(N)=O)C(C)O)NC1=O` (stereo partly drawn) [Example 13, H-D-2-Nal^1-cyclo(Cys^2-Tyr^3-p-F-D-Phe^4-Lys^5-Val^6-Cys^7)-Thr^8-NH2.2 CH3COOH] (H-[d2Nal]CY[dPhe(4-F)]KVC[Thr(3ξ)]-NH2; disulfide 2-7), in data set [1], the Assembly result was “monodisperse peptide nanotubes and 17 nm monodisperse nanotube”. Also, the Ki in data set [2] was no more than 1000 nM; in data set [3], no more than 5 nM. In addition, the solubility in data set [4] was 49 mg/mL (≈ 45.6 mM).
In the case of `CC(C)[C@@H]1NC(=O)[C@H](CCCCN)NC(=O)[C@@H](Cc2csc3ccccc23)NC(=O)[C@H](Cc2ccc(O)cc2)NC(=O)[C@@H](NC(=O)[C@H](N)Cc2ccc3ccccc3c2)CSSC[C@@H](C(=O)N[C@H](C(N)=O)C(C)O)NC1=O` (stereo partly drawn) [Example 1, H-D-2-Nal^1-cyclo(Cys^2-Tyr^3-β-(3-benzothienyl)-D-Ala^4-Lys^5-Val^6-Cys^7)-Thr^8-NH2.2 CH3COOH], the Assembly entry in data set [1] is “monodisperse peptide nanotubes and 20 nm monodisperse nanotube”. The Ki in data set [2] was no more than 100 nM; in data set [3], no more than 5 nM.
For the compound `CC(C)[C@@H]1NC(=O)[C@H](CCCCN)NC(=O)[C@@H](Cc2ccc(O)cc2)NC(=O)[C@H](Cc2ccc(O)cc2)NC(=O)[C@@H](NC(=O)[C@H](N)Cc2ccc3ccccc3c2)CSSC[C@@H](C(=O)N[C@H](C(N)=O)C(C)O)NC1=O` (stereo partly drawn) [Example 14, H-D-2-Nal^1-cyclo(Cys^2-Tyr^3-D-Tyr^4-Lys^5-Val^6-Cys^7)-Thr^8-NH2.2 CH3COOH] (H-[d2Nal]CY[dY]KVC[Thr(3ξ)]-NH2; disulfide 2-7), the Assembly entry in data set [1] is “monodisperse peptide nanotubes and 18 nm monodisperse nanotube”. Further, the Ki is no more than 1000 nM in data set [2] and no more than 5 nM in data set [3].
With `CC(C)[C@@H]1NC(=O)[C@H](CCCCN)NC(=O)[C@@H](C(C)C)NC(=O)[C@H](Cc2ccc(O)cc2)NC(=O)[C@@H](NC(=O)[C@H](N)Cc2ccc3ccccc3c2)CSSC[C@@H](C(=O)N[C@H](C(N)=O)C(C)O)NC1=O` (stereo partly drawn) [Example 5, H-D-2-Nal^1-cyclo(Cys^2Tyr^3-D-Val^4-Lys^5-Val^6Cys^7)-Thr^8-NH2.2 CH3COOH] (H-[d2Nal]CY[dV]KVC[Thr(3ξ)]-NH2; disulfide 2-7), the Assembly entry in data set [1] is recorded as “soluble”. Moreover, the Ki in data set [2] was no more than 5000 nM; in data set [3] it was no more than 700 nM.
Taken in the same sequence, the figures for `CC(C)[C@@H]1NC(=O)[C@H](CCCCN)NC(=O)[C@@H](Cc2ccc(-c3ccccc3)cc2)NC(=O)[C@H](Cc2ccc(O)cc2)NC(=O)[C@@H](NC(=O)[C@H](N)Cc2ccc3ccccc3c2)CSSC[C@@H](C(=O)N[C@H](C(N)=O)C(C)O)NC1=O` (stereo partly drawn) [Example 21, H-D-2-Nal^1-cyclo(Cys^2-Tyr^3-p-Ph-D-Phe^4-Lys^5-Val^6-Cys^7)-Thr^8-NH2.2 CH3COOH] were “insoluble”, no more than 100 nM and no more than 50 nM.
Taken in the same sequence, the figures for `CC(C)[C@@H]1NC(=O)[C@H](CCCCN)NC(=O)[C@@H](CCc2ccccc2)NC(=O)[C@H](Cc2ccc(O)cc2)NC(=O)[C@@H](NC(=O)[C@H](N)Cc2ccc3ccccc3c2)CSSC[C@@H](C(=O)N[C@H](C(N)=O)C(C)O)NC1=O` (stereo partly drawn) [Example 11, H-D-2-Nal^1-cyclo(Cys^2-Tyr^3-D-Homophe^4-Lys^5-Val^6Cys^7)-Thr^8-NH2.2 CH3COOH] (H-[d2Nal]CY[d(hPhe)]KVC[Thr(3ξ)]-NH2; disulfide 2-7) were “soluble”, no more than 1000 nM and no more than 50 nM.
As to `CC(C)[C@@H]1NC(=O)[C@H](CCCCN)NC(=O)[C@@H](Cc2ccc(Br)cc2)NC(=O)[C@H](Cc2ccc(O)cc2)NC(=O)[C@@H](NC(=O)[C@H](N)Cc2ccc3ccccc3c2)CSSC[C@@H](C(=O)N[C@H](C(N)=O)C(C)O)NC1=O` (stereo partly drawn) [Example 12, H-D-2-Nal^1-cyclo(Cys^2-Tyr^3-p-Br-D-Phe^4-Lys^5-Val^6-Cys^7)-Thr^8-NH2.2 CH3COOH] (H-[d2Nal]CY[dPhe(4-Br)]KVC[Thr(3ξ)]-NH2; disulfide 2-7), in data set [1], the Assembly entry was “monodisperse peptide nanotubes and 17 nm monodisperse nanotube”. Also, the results for the Ki in data set [2] and in data set [3] were no more than 100 nM and no more than 5 nM, respectively.
As to `CC(C)[C@@H]1NC(=O)[C@H](CCCCN)NC(=O)[C@@H](c2ccccc2)NC(=O)[C@H](Cc2ccc(O)cc2)NC(=O)[C@@H](NC(=O)[C@H](N)Cc2ccc3ccccc3c2)CSSC[C@@H](C(=O)N[C@H](C(N)=O)C(C)O)NC1=O` (stereo partly drawn) [Example 10, H-D-2-Nal^1-cyclo(Cys^2-Tyr^3-D-Phg^4-Lys^5-Val^6-Cys^7)-Thr^8-NH2.2 CH3COOH], the Assembly result in data set [1] was “self-assembled fibres”. For the same compound, the figures for the Ki in data set [2] and in data set [3] were no more than 5000 nM and no more than 700 nM, respectively.
Regarding `CC(C)[C@@H]1NC(=O)[C@H](CCCCN)NC(=O)[C@@H](Cc2cccc(F)c2)NC(=O)[C@H](Cc2ccc(O)cc2)NC(=O)[C@@H](NC(=O)[C@H](N)Cc2ccc3ccccc3c2)CSSC[C@@H](C(=O)N[C@H](C(N)=O)C(C)O)NC1=O` (stereo partly drawn) [Example 15, H-D-2-Nal^1-cyclo(Cys^2-Tyr^3-m-F-D-Phe^4-Lys^5-Val^6-Cys^7)-Thr^8-NH2.2 CH3COOH] (H-[d2Nal]CY[dPhe(3-F)]KVC[Thr(3ξ)]-NH2; disulfide 2-7), in data set [1], the Assembly entry is “monodisperse peptide nanotubes and 15.6 nm monodisperse nanotube”. Further, the Ki in data set [2] is no more than 100 nM; in data set [3], no more than 5 nM.
Take `CC(C)[C@@H]1NC(=O)[C@H](CCCCN)NC(=O)[C@@H](Cc2c3ccccc3cc3ccccc23)NC(=O)[C@H](Cc2ccc(O)cc2)NC(=O)[C@@H](NC(=O)[C@H](N)Cc2ccc3ccccc3c2)CSSC[C@@H](C(=O)N[C@H](C(N)=O)C(C)O)NC1=O` (stereo partly drawn) [Example 8, H-D-2-Nal^1-cyclo(Cys^2Tyr^3-β-(9-anthryl)-D-Ala^4-Lys^5-Val^6Cys^7)-Thr^8-NH2.2 CH3COOH]: the Assembly entry in data set [1] is “insoluble”. Further, the Ki in data set [2] is no more than 100 nM; in data set [3] it was no more than 50 nM.
